In patent US10752588B2 (The Broad Institute, Inc., priority 2014, dated 2020) one finds IC50 and EC50 data, which are given here for 26 molecules.

For test [1], the target named is T1, human D2R/β-arrestin (Homo sapiens (Human), UniProt P14416). The note with it: read-out: β-arrestin Antagonist.
Test [2] addresses T1, human D2R/β-arrestin. As to the kind of experiment: β-Arrestin agonist assay (PathHunter). Type of test: cell-based. The settings on record: CHO-K1 cell line expressing human D2R/β-arrestin. In a few lines:
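Readout follows addition of Buffer:Emerald II:Galactor-Star reagent (19:5:1) to agonist-treated plates, measured as luminescence or fluorescence.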

Test [3] deals with T1, human D2R/β-arrestin. The note with it: read-out: cAMP Antagonist.
Description: The detection reagents are then added, and the read-out is detected.
Cells were prepared for assays by growing cultures for up to 2 weeks (from about 6-20 passages). A vial of frozen cells was thawed in a water bath held at 37° C. The cells were then transferred into a 50 ml tube with 10 ml growth media. The vial was rinsed with growth media and the contents transferred to the 50 ml tube. The 50 ml tube was centrifuged at 1200 rpm for 5 minutes at room temperature. […] When the cells reached about 90% confluence (approximately 3 days between passages), the cells were passaged and used for either the agonist or antagonist assays as described below.
The cells were prepared for Gi/cAMP assays as described above. The assays were performed using a PE Lance Ultra cAMP kit (TRF0263). The cells were grown on 225 mm dishes, then washed once with 1×PBS (Cellgro) before digestion with 2.5 ml 1× Detachment reagent (DRX 92-0009) for about 2 minutes. PBS (20 ml) was then added to the plate, and the cells were transferred to a 50 ml centrifuge tube, and centrifuged at room temperature using BD Dynac III, at 1200 rpm for 5 minutes. […] The plates were then incubated at room temperature for about 30 minutes before addition of Eu-cAMP tracer solution (100, PerkinElmer) and then ULight-anti-cAMP solution (100) to each well.
Test [4] concerns the target T1, human D2R/β-arrestin. Description: Gi/cAMP agonist assay (Lance Ultra cAMP, Forskolin). Type of test: cell-based. The note with it: CHO-K1 cell line expressing human D2R/β-arrestin. In outline:
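Read-out was Lance Ultra competitive TR-FRET (Eu-cAMP tracer plus ULight-anti-cAMP) following forskolin-induced cAMP production. Before forskolin stimulation, compounds were pin-transferred onto the seeded cells for 10 min at 37 °C.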

The target in test [5] is T1, human D2R/β-arrestin. As to the kind of experiment: cell-based. The note with it: β-arrestin Antagonist, CHO-K1 cell line expressing human D2R/β-arrestin; quinpirole used as agonist.
The mark [6] stands for this setting: CHO-K1 cell line expressing human D2R/β-arrestin, quinpirole used as agonist.

As usually defined, the EC50 is the concentration at which the effect is half-maximal. Read a high EC50 as a less potent agent.

Structures are written as SMILES. Read-outs that look alike come from different tables or passages of the source. A value given as a limit tells only on which side of the number the result lay.

T1 sequence (P14416 whole entry): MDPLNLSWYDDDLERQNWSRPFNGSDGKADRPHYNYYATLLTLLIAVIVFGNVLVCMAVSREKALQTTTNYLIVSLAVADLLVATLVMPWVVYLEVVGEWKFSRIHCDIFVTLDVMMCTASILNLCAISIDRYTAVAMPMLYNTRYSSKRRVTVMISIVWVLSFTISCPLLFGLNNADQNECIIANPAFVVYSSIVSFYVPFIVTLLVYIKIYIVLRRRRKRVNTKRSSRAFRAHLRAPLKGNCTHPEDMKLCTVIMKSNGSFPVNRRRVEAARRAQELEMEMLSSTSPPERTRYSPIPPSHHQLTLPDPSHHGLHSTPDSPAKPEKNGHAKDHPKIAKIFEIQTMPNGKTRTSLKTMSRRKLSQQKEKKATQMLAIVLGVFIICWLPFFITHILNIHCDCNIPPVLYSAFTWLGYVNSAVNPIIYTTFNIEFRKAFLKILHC

For `O=C(NC(c1ccc(Cl)cc1)c1ccccn1)C1CCN(CCOc2ccccc2F)CC1` (single isomer, unassigned) [Compound 3a], the IC50 in test [1] and in test [3] was 0.1 to 1 µM each time. The concentration for a half-maximal effect (EC50) in test [2] and in test [4] was more than 30 µM each time.

On to `O=C(NC(c1ccc(Cl)cc1)c1ccccn1)C1CCN(CCOc2ccccc2F)CC1` (single isomer, unassigned) [Compound 3b], for which the IC50 in test [1] is 0.1 to 1 µM; in test [3] it was more than 30 µM. In addition, the EC50 in test [2] is more than 30 µM; in test [4], less than 0.1 µM.

As for `O=C(NC(c1ccc(Cl)cc1)c1ccccn1)C1CCN(CCOc2cccc(F)c2)CC1` (single isomer, unassigned) [Compound 4a], the IC50 in test [1] was 1 to 10 µM; in test [3], more than 30 µM. Moreover, the EC50 fell in the range of 1 to 10 µM in test [2] and 0.1 to 1 µM in test [4].

Consider `O=C(NC(c1ccc(Cl)cc1)c1ccccn1)C1CCN(CCOc2cccc(F)c2)CC1` (single isomer, unassigned) [Compound 4b], for which the IC50 is 1 to 10 µM in test [1] and 0.1 to 1 µM in test [3]. In addition, the EC50 in test [2] and in test [4] was more than 30 µM each time.

Consider `O=C(NC(c1ccc(Cl)cc1)c1ccccn1)C1CCN(CCn2ccc(=O)cc2)CC1` (single isomer, unassigned) [Compound 11a], for which the IC50 was in the range of 0.1 to 1 µM in test [1] and 1 to 10 µM in test [3]. Besides, the half-maximal effective concentration (EC50) in test [2] and in test [4] was more than 30 µM in each case.

For the molecule `O=C(NC(c1ccc(Cl)cc1)c1ccccn1)C1CCN(CCn2ccc(=O)cc2)CC1` (single isomer, unassigned) [Compound 11b], the IC50 in test [1] and in test [3] was more than 30 µM throughout. Further, the EC50 in test [2] and in test [4] was more than 30 µM in each case.

For the molecule `O=C(NC(c1ccc(Cl)cc1)c1ccccn1)C1CCN(CCOc2cc(F)ccc2F)CC1` (single isomer, unassigned) [Compound 14a], the IC50 in test [1] is 1 to 10 µM; in test [3] it was more than 30 µM. Moreover, the EC50 in test [2] is 0.1 to 1 µM; in test [4], less than 0.1 µM.

Consider `O=C(NC(c1ccc(Cl)cc1)c1ccccn1)C1CCN(CCOc2cc(F)ccc2F)CC1` (single isomer, unassigned) [Compound 14b], for which the figures for the IC50 in test [1] and in test [3] were 0.1 to 1 µM and 1 to 10 µM, respectively. Besides, the EC50 in test [2] and in test [4] was more than 30 µM each time.

As to `O=C(NC(c1ccc(Cl)cc1)c1ccccn1)C1CCN(CCOc2ccc3cccnc3c2)CC1` (single isomer, unassigned) [Compound 16a], the IC50 in test [1] and in test [3] was more than 30 µM throughout. The values for the EC50 in test [2] and in test [4] were 1 to 10 µM and less than 0.1 µM, respectively.

In the case of `O=C(NC(c1ccc(Cl)cc1)c1ccccn1)C1CCN(CCOc2ccc3cccnc3c2)CC1` (single isomer, unassigned) [Compound 16b], the IC50 in test [1] and in test [3] was more than 30 µM each time. For the same molecule, the EC50 was more than 30 µM in test [2] and 1 to 10 µM in test [4].

On to `COc1cccc(C(NC(=O)C2CCN(CCOc3ccccc3F)CC2)c2ccccn2)c1` (single isomer, unassigned) [Compound 22a, 1-(2-(2-fluorophenoxy)ethyl)-N-((3-methoxyphenyl)(pyridin-2-yl)methyl) piperidine-4-carboxamide], for which the IC50 in test [1] and in test [3] was 0.1 to 1 µM throughout. Moreover, the EC50 in test [2] is more than 30 µM; in test [4], 10 to 30 µM.

As for `O=C(NC(c1ccc(Cl)cc1)c1ccccc1F)C1CCN(CCOc2ccccc2)CC1` (single isomer, unassigned) [Compound 40a, N((4-chlorophenyl)(2-fluorophenyl)methyl)-1-(2-phenoxyethyl) piperidine-4-carboxamide], the IC50 in test [1] and in test [3] was 0.1 to 1 µM in each case. Further, the EC50 in test [2] and in test [4] was more than 30 µM in each case.

On to `O=C(NC(c1ccc(Cl)cc1)c1ccccc1F)C1CCN(CCOc2ccccc2)CC1` (single isomer, unassigned) [Compound 40b, N((4-chlorophenyl)(2-fluorophenyl)methyl)-1-(2-phenoxyethyl) piperidine-4-carboxamide], for which the IC50 is 1 to 10 µM in test [1] and more than 30 µM in test [3]. The values for the EC50 in test [2] and in test [4] were more than 30 µM and 1 to 10 µM, respectively.

`O=C(NC(c1ccc(F)cc1)c1ccc(Cl)cc1)C1CCN(CCOc2ccccc2)CC1` (single isomer, unassigned) [Compound 42a]: the IC50 in test [1] and in test [3] was 0.1 to 1 µM in each case. Also, the EC50 in test [2] is more than 30 µM; in test [4], 0.1 to 1 µM.

For `O=C(NC(c1ccc(F)cc1)c1ccc(Cl)cc1)C1CCN(CCOc2ccccc2)CC1` (single isomer, unassigned) [Compound 42b], the IC50 in test [1] and in test [3] was 1 to 10 µM throughout. Further, the EC50 in test [2] is more than 30 µM; in test [4] it was 10 to 30 µM.

Take `O=C(NC(c1ccccc1)c1ccc(F)cc1)C1CCN(CCOc2ccccc2)CC1` (single isomer, unassigned) [Compound 45a]: the IC50 in test [1] and in test [3] was 0.1 to 1 µM in each case. The EC50 in test [2] and in test [4] was more than 30 µM in each case.

Consider `O=C(NC(c1ccccc1)c1ccc(F)cc1)C1CCN(CCOc2ccccc2)CC1` (single isomer, unassigned) [Compound 45b], for which the IC50 in test [1] and in test [3] was 0.1 to 1 µM throughout. The EC50 was more than 30 µM in test [2] and 0.1 to 1 µM in test [4].

For the molecule `O=C(NC(c1ccc(F)cc1)c1ccccn1)C1CCN(CCOc2ccccc2C(F)(F)F)CC1` (single isomer, unassigned) [Compound 52a], the IC50 is 0.1 to 1 µM in test [1] and less than 0.1 µM in test [3]. Moreover, the EC50 in test [2] and in test [4] was more than 30 µM throughout.

On to `O=C(NC(c1ccc(F)cc1)c1ccccn1)C1CCN(CCOc2ccccc2C(F)(F)F)CC1` (single isomer, unassigned) [Compound 52b], for which the IC50 in test [1] and in test [3] was 0.1 to 1 µM throughout. For the same molecule, the EC50 in test [2] and in test [4] was more than 30 µM throughout.

For `O=C(NC(c1ccc(F)cc1)c1ccccn1)C1CCN(CCOc2ccccc2Cl)CC1` (single isomer, unassigned) [Compound 53a, 1-(2-(2-chlorophenoxy)ethyl)-N-((4-fluorophenyl)(pyridin-2-yl)methyl) piperidine-4-carboxamide], the IC50 in test [1] and in test [3] was 0.1 to 1 µM each time. Further, the half-maximal effective concentration (EC50) in test [2] and in test [4] was more than 30 µM throughout.

`O=C(NC(c1ccc(F)cc1)c1ccccn1)C1CCN(CCOc2ccccc2Cl)CC1` (single isomer, unassigned) [Compound 53b, 1-(2-(2-chlorophenoxy)ethyl)-N-((4-fluorophenyl)(pyridin-2-yl)methyl) piperidine-4-carboxamide]: the IC50 in test [1] and in test [3] was 0.1 to 1 µM throughout. Besides, the EC50 in test [2] and in test [4] was more than 30 µM in each case.

Turning to `O=C(NC(c1ccc(F)cc1)c1ccccn1)C1CCN(CCOc2ccccc2F)CC1` (single isomer, unassigned) [Compound 54a, 1-(2-(2-fluorophenoxy)ethyl)-N-((4-fluorophenyl)(pyridin-2-yl)methyl) piperidine-4-carboxamide], the IC50 in test [1] and in test [3] was less than 0.1 µM each time. For the same molecule, the EC50 in test [2] and in test [4] was more than 30 µM throughout.

Turning to `O=C(NC(c1ccc(F)cc1)c1ccccn1)C1CCN(CCOc2ccccc2F)CC1` (single isomer, unassigned) [Compound 54b, 1-(2-(2-fluorophenoxy)ethyl)-N-((4-fluorophenyl)(pyridin-2-yl)methyl) piperidine-4-carboxamide], the IC50 in test [1] was 1 to 10 µM; in test [3], more than 30 µM. The EC50 is more than 30 µM in test [2] and 0.1 to 1 µM in test [4].

As to `CC1(C(=O)NC(c2ccc(F)cc2)c2ccccn2)CCN(CCOc2ccccc2C(F)(F)F)CC1` (single isomer, unassigned) [Compound 70a, N-((4-fluorophenyl)(pyridin-2-yl)methyl)-4-methyl-1-(2-(2-(trifluoromethyl)phenoxy)ethyl) piperidine-4-carboxamide], the IC50 in test [1] and in test [3] was less than 0.1 µM each time. Moreover, the EC50 in test [2] and in test [4] was more than 30 µM each time.

Take `Fc1ccccc1OCCN1CCC(CNC(c2ccc3c(c2)OCO3)c2ccccn2)CC1` (single isomer, unassigned) [Compound 139b, 1-(benzo[d][1,3]dioxol-5-yl)-N-((1-(2-(2-fluorophenoxy)ethyl)piperidin-4-yl)methyl)-1-(pyridin-2-yl)methanamine]: the figures for the EC50 in test [2] and in test [4] were more than 30 µM and 0.1 to 1 µM, respectively. The figures for the IC50 in test [5] and in test [3] (setting [6]) were 1 to 10 µM and 0.1 to 1 µM, respectively.

Turning to `CC1(C(=O)NC(c2ccc(Cl)cc2)c2ccccn2)CCN(CCOc2ccccc2)CC1` (single isomer, unassigned) [Compound 144b, N-((4-chlorophenyl)(pyridin-2-yl)methyl)-4-methyl-1-(2-phenoxyethyl)piperidine-4-carboxamide], the EC50 in test [2] was 0.1 to 1 µM; in test [4], less than 0.1 µM. For the same molecule, the IC50 in test [5] was 0.1 to 1 µM; in test [3] (setting [6]) it was more than 30 µM.
